Data taken from paper PMC4849104, “Selected novel 5'-amino-2'-hydroxy-1, 3-diaryl-2-propen-1-ones arrest cell cycle of HCT-116 in G0/G1 phase” (EXCLI Journal, 2016).
Values joined by “and” are separate entries in the source; they are usually repeats but may differ in a detail not shown here. Equal values may be shown once.

Legend:
[1] = system: human colon cancer (HCT-116) cells; test: Cytotoxicity by MTT assay on HCT-116; type: cell-based; settings: for IC50 (μM) HCT-116 / IC50: MTT assay, 48 h incubation; for cytotoxicity against HCT-116 (in words): MTT, close to 200 µM including SEM
Procedure: (§1) Cytotoxicity of the synthesized compounds was evaluated in cancer cells namely human colon cancer (HCT-116) cells and human breast cancer (MCF-7) cells and normal kidney epithelial cells (Vero). These cells were originally procured from National Cancer Center for Cell Science, Pune, India and cultured in our lab using Dulbecco's modified Eagles medium (DMEM) containing 10 % fetal bovine serum (FBS) at 37 °C in an atmosphere containing 5 % CO2. All other chemicals used in this study were purchased from Sigma-Aldrich, USA.
(§2) Cell suspension containing 1 x 10^4 cells in 0.1 mL was seeded in a 96 well plate for 24 h. Test compounds were serially diluted with the medium to get a stock solution of 400 µM, 200 µM, 100 µM, 50 µM. After 24 h of incubation, 100 µL of test solution from respective stocks was added in triplicate and incubated for 48 h. After the treatment, drug-containing media was removed and 20 µL of MTT reagent (5 mg/mL in PBS) was added to each well. After 4 h of incubation at 37 °C, the MTT reagent was removed and 100 µL of 100 % DMSO was added to each well to solubilize formazan crystals. The optical density was measured using an ELISA plate reader at 540 nm and percentage cytotoxicity was calculated. (Kumar et al., 2012[15]; Zi and Simoneau, 2005[31]).

[2] = system: human breast cancer (MCF-7) cells; test: Cytotoxicity by MTT assay on MCF-7; type: cell-based; settings: for IC50 (μM) MCF-7 / IC50: MTT assay, 48 h incubation; for cytotoxicity against MCF-7 (in words): MTT, close to 200 µM including SEM
Procedure: as §1, §2

[3] = system: normal kidney epithelial cells (Vero); test: Cytotoxicity by MTT assay on Vero; type: cell-based; settings: 48 h incubation
Procedure: as §1, §2

HCT-116 cells [4] = test: Cell cycle analysis by flow cytometry with propidium iodide; type: cell-based, human; settings: for phase of cell cycle arrest: HCT-116, AC-10 100 µM, AC-13 and AC-14 50 µM, doxorubicin 1 µM
Procedure: Flow cytometric analysis technique evaluates the effect of test compounds on cell cycle progression and check-points. Cells (1 x 10^6) were seeded in 25 cm^2 flasks and, after overnight adherence, incubated with test compounds. Then cells were detached by trypsinization and mixed with floating cells, centrifuged and washed with PBS. The cell pellets were fixed in 70 % ice-cold methanol and stored at -20 °C for 24 h. After that cell pellets were washed with PBS and isotonic PI solution [25 µM propidium iodide, 0.03 % NP-40 and 40 µg /ml RNase A] was added. The stained cells were analyzed using Accuri C6 flow cytometer (BD Biosciences, San Jose, CA, USA) with excitation at 488 nm and emission at 575/40 nm (Reddy et al., 2015[25]).

HCT-116 cells [5] = test: Acridine orange/ethidium bromide (AO/EB) dual nuclear staining, apoptotic index; type: cell-based, human; settings: HCT-116, AO/EB; for percentage apoptotic nuclei (apoptotic index): mean ± SEM
Procedure: DNA-binding dyes Acridine orange (AO) and Ethidium bromide (EB) (Sigma, USA) were used for the morphological detection of apoptotic cells. 5 x 10^3 cells were seeded per well in 24-well plates with DMEM, containing 10 % FBS. After 24 h, cells were treated with selected concentrations of test compounds and incubated for 24 h. The media was removed and plate was washed with phosphate buffer saline (PBS, pH 7.4). Cells were fixed in ice-cold methanol for 20 min, washed with PBS again and stained with acridine orange and ethidium bromide stain (20/30 µg/ml). After incubation for 20 min at 37 °C, and washing with PBS thrice, the plate was observed under a fluorescent microscope for morphological changes in nucleus such as condensed chromatin and fragmented nuclei. The apoptotic index (AI) was calculated as % of apoptotic cells from randomly counted 100 cells in each treatment group (Reddy et al., 2015[25]).

| melting point | Compound | IC50 (μM) MCF-7 [2] | IC50 ([3]; Chlorocebus sabaeus, Vero) | IC50 ([1]; Homo sapiens, HCT-116) | cytotoxicity against HCT-116 (in words) [1] | IC50 ([2]; Homo sapiens, MCF7) | cytotoxicity against MCF-7 (in words) [2] | also measured |
| --- | --- | --- | --- | --- | --- | --- | --- | --- |
| 110 °C | COc1cccc(/C=C/C(=O)c2cc(N)ccc2O)c1 [AC-6, (E)-1-(5-Amino-2-Hydroxyphenyl)-3-(3-methoxyphenyl)prop-2-en-1-one] | No activity | > 200 µM |  |  |  |  | IC50 (μM) HCT-116 [1]: No activity |
| 136 °C | COc1ccc(/C=C/C(=O)c2cc(N)ccc2O)cc1O [AC-8, (E)-1-(5-Amino-2-Hydroxyphenyl)-3-(3-hydroxy-4-methoxyphenyl)prop-2-en-1-one] |  | > 200 µM | 123 ± 7.2 µM | high cytotoxicity | 171 ± 12.9 µM | high cytotoxicity |  |
| 126 °C | Nc1ccc(O)c(C(=O)/C=C/c2ccccc2)c1 [AC-1, (E)-1-(5-Amino-2-Hydroxyphenyl)-3-phenylprop-2-en-1-one] |  | > 200 µM | 299 ± 49.8 µM |  | 1960 ± 776 µM |  |  |
| 130 to 132 °C | Nc1ccc(O)c(C(=O)/C=C/c2ccccc2O)c1 [AC-10, (E)-1-(5-Amino-2-Hydroxyphenyl)-3-(2-hydroxyphenyl)prop-2-en-1-one] |  | > 200 µM | 95.4 ± 1.7 µM | high cytotoxicity | 74.7 ± 3.5 µM | high cytotoxicity | percentage apoptotic nuclei (apoptotic index) (HCT-116 cells [5]; 100 µM): 27 ± 3.21%; % cells in G0/G1 phase (M1) (HCT-116 cells [4]; HCT-116, 100 µM, 48 h treatment): 70.5%; phase of cell cycle arrest (HCT-116 cells [4]): G0/G1 phase |
| 138 °C | Nc1ccc(O)c(C(=O)/C=C/c2ccc(Cl)cc2)c1 [AC-2, (E)-1-(5-Amino-2-Hydroxyphenyl)-3-(4-chlorophenyl)prop-2-en-1-one] | No activity | > 200 µM | 205 ± 3.15 µM | high cytotoxicity |  |  |  |
| 136 °C | COc1cc(/C=C/C(=O)c2cc(N)ccc2O)ccc1O [AC-7, (E)-1-(5-Amino-2-Hydroxyphenyl)-3-(4-hydroxy-3-methoxyphenyl)prop-2-en-1-one] |  | > 200 µM | 393 ± 77.9 µM |  | 248 ± 4.31 µM |  |  |
| 154 °C | Nc1ccc(O)c(C(=O)/C=C/c2ccc(F)cc2)c1 [AC-3, (E)-1-(5-Amino-2-Hydroxyphenyl)-3-(4-fluorophenyl)prop-2-en-1-one] |  | > 200 µM | 174 ± 3.53 µM | high cytotoxicity | 542 ± 38.5 µM |  |  |

Second part, the compound before the results:

| Compound | melting point | IC50 (μM) MCF-7 [2] | IC50 ([3]; Chlorocebus sabaeus, Vero) | IC50 ([1]; Homo sapiens, HCT-116) | cytotoxicity against HCT-116 (in words) [1] | IC50 ([2]; Homo sapiens, MCF7) | cytotoxicity against MCF-7 (in words) [2] | also measured |
| --- | --- | --- | --- | --- | --- | --- | --- | --- |
| CCOc1ccc(/C=C/C(=O)c2cc(N)ccc2O)cc1 [AC-5, (E)-1-(5-Amino-2-Hydroxyphenyl)-3-(4-ethoxyphenyl)prop-2-en-1-one] | 135 °C | No activity | > 200 µM |  |  |  |  | IC50 (μM) HCT-116 [1]: No activity |
| Nc1ccc(O)c(C(=O)/C=C/c2ccc(OCc3ccccc3)cc2)c1 [AC-15, (E)-1-(5-Amino-2-Hydroxyphenyl)-3-(4-benzyloxyphenyl)prop-2-en-1-one] | 136 to 138 °C | No activity | > 200 µM | 211 ± 26 µM |  |  |  |  |
| COc1cccc2c1C(=O)c1c(O)c3c(c(O)c1C2=O)C[C@@](O)(C(=O)CO)C[C@@H]3O[C@H]1C[C@H](N)[C@H](O)[C@H](C)O1 [doxorubicin, reference compound] |  |  |  |  |  |  |  | more accumulation of cells in G2/M phase as compared to normal control (HCT-116 cells [4]; HCT-116, 1 µM (standard), normal control 23.0 %): 7.4%; phase of cell cycle arrest (HCT-116 cells [4]): G2/M phase |
| COc1ccc(/C=C/C(=O)c2cc(N)ccc2O)cc1 [AC-11, (E)-1-(5-Amino-2-Hydroxyphenyl)-3-(4-methoxyphenyl)prop-2-en-1-one] | 102 to 104 °C |  | > 200 µM |  |  | 1030 ± 60.6 µM |  | IC50 (μM) HCT-116 [1]: No activity |
| COc1ccc(/C=C/C(=O)c2cc(N)ccc2O)cc1OC [AC-9, (E)-1-(5-Amino-2-Hydroxyphenyl)-3-(3,4-dimethoxyphenyl)prop-2-en-1-one] | 90 °C |  | > 200 µM | 186 ± 7.3 µM | high cytotoxicity | 190 ± 10.5 µM | high cytotoxicity |  |
| Nc1ccc(O)c(C(=O)/C=C/c2cccc([N+](=O)[O-])c2)c1 [AC-4, (E)-1-(5-Amino-2-Hydroxyphenyl)-3-(3-nitrophenyl)prop-2-en-1-one] | 112 °C | No activity | > 200 µM | 309 ± 74.1 µM |  |  |  |  |
| COc1cc(/C=C/C(=O)c2cc(N)ccc2O)cc(OC)c1OC [AC-14, (E)-1-(5-Amino-2-Hydroxyphenyl)-3-(3,4,5-trimethoxyphenyl)prop-2-en-1-one] | 136 to 138 °C |  | > 200 µM | 62 ± 2.3 µM | high cytotoxicity | 197 ± 7.9 µM | high cytotoxicity | percentage apoptotic nuclei (apoptotic index) (HCT-116 cells [5]; 50 µM): 24.3 ± 3.53%; % cells in G0/G1 phase (M1) (HCT-116 cells [4]; HCT-116, 50 µM, 48 h treatment): 70.8%; phase of cell cycle arrest (HCT-116 cells [4]): G0/G1 phase |
| (E)-1-(5-Amino-2-Hydroxyphenyl)-3-(3,4-dichlorophenyl)prop-2-en-1-one [AC-12] |  |  |  |  |  |  |  | IC50 [1]: 169 ± 66.7 µM; IC50 [2]: 236 ± 9.8 µM; IC50 [3]: > 200 µM |
| Nc1ccc(O)c(C(=O)/C=C/c2ccc3c(c2)OCO3)c1 [AC-13, (E)-1-(5-Amino-2-Hydroxyphenyl)-3-(3,4-methylenedioxyphenyl)prop-2-en-1-one] | 128 °C |  | > 200 µM | 42.1 ± 4 µM | high cytotoxicity | 130 ± 3.8 µM | high cytotoxicity | increase in apoptotic nuclei compared to medium control (HCT-116 cells [5]; 50 µM): about five; percentage apoptotic nuclei (apoptotic index) (HCT-116 cells [5]; 50 µM): 31% and 31 ± 4.16%; % cells in G0/G1 phase (M1) (HCT-116 cells [4]; HCT-116, 50 µM, 48 h treatment): 66.5%; % cells in G2/M phase (M3) (HCT-116 cells [4]; HCT-116, 50 µM, 48 h treatment): 25.1%; phase of cell cycle arrest (HCT-116 cells [4]): G0/G1 and G2/M phase |
